Tests used:
human capsaicin receptor = target: T1, human capsaicin receptor (Homo sapiens, UniProt Q8NER1); assay: Calcium mobilization assay, determination of agonist activity; format: cell-based; details: capsaicin positive control, cells expressing human capsaicin receptor; read-out: approximate EC90 concentration
T1 construct: transfected with the pBK-CMV expression construct encoding the full length human capsaicin receptor; expressed in transfected cells
Method: This Example illustrates representative calcium mobilization assays for use in evaluating test compounds for agonist and antagonist activity.
Cells transfected with expression plasmids (as described in Example 4) and thereby expressing human capsaicin receptor are seeded and grown to 70-90% confluency in FALCON black-walled, clear-bottomed 96-well plates (#3904, BECTON-DICKINSON, Franklin Lakes, N.J.). […]
To measure the ability of a test compound to agonize or antagonize a calcium mobilization response in cells expressing capsaicin receptors to capsaicin or other vanilloid agonist, the EC50 of the agonist capsaicin is first determined. […] Capsaicin-induced calcium mobilization is monitored using either FLUOROSKAN ASCENT (Labsystems; Franklin, Mass.) or FLIPR (fluorometric imaging plate reader system; Molecular Devices, Sunnyvale, Calif.) instruments. […] In this equation, y is the maximum fluorescence signal, x is the concentration of the agonist or antagonist (in this case, capsaicin), a is the Emax, b corresponds to the EC50 value and c is the Hill coefficient. […]
The ability of a test compound to act as an agonist of the capsaicin receptor is determined by measuring the fluorescence response of cells expressing capsaicin receptors elicited by the compound as function of compound concentration.

[1] = target: T2, human capsaicin receptor (VR1) (Homo sapiens, UniProt Q8NER1); assay: Capsaicin receptor binding assay ([3H]RTX competition); details: read-out: Ki
T2 construct: transfected with the pBK-CMV expression construct encoding the full length human capsaicin receptor; expressed in transfected cells
T2 sequence (Q8NER1 whole entry): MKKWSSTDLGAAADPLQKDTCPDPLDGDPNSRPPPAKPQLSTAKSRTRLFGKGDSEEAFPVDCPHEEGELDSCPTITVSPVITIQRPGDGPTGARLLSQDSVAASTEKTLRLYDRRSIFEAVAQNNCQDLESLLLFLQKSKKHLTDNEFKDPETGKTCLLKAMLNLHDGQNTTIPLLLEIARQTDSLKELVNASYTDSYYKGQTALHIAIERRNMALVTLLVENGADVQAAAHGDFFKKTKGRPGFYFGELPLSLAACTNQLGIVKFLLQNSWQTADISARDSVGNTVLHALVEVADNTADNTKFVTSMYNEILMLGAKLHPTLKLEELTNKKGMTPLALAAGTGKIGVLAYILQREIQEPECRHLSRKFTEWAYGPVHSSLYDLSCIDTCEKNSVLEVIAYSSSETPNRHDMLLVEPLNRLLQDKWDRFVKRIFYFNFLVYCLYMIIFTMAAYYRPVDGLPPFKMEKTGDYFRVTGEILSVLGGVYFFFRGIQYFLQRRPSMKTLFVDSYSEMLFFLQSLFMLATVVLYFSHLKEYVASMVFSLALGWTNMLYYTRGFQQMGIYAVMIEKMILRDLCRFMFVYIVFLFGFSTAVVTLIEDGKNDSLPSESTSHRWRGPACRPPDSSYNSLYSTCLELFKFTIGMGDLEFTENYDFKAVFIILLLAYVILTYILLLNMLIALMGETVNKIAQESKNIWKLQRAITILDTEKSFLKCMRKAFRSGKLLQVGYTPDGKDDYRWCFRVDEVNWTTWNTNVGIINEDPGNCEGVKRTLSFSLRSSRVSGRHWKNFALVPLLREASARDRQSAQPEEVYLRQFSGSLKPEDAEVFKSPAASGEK
Method in brief: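 Membranes from HEK293 cells stably expressing full-length human VR1; competition against 60 pM [3H]RTX, 60 min at 37 °C in HEPES/sucrose buffer pH 7.4 with 0.25 mg/ml BSA. Non-specific binding defined with 1 μM unlabelled RTX; alpha1-acid glycoprotein added after termination on ice.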

T1 sequence (Q8NER1 whole entry): as above

Row | SMILES | EC90 (human capsaicin receptor) [µM] | Ki [1] [µM]
1 | COc1cc(CNC(=O)CCCC/C=C/C(C)C)ccc1O [capsaicin] | ~0.1 | –
2 | Cc1nc2cc(NC(=O)c3ccc(-c4cccc(OC(F)(F)F)c4)nc3)ccc2s1 [Compound 207, N-(2-Methyl-benzothiazol-5-yl)-6-(3-trifluoromethoxy-phenyl)-nicotinamide] | – | < 1
3 | CCCOc1cccnc1-c1ccc(C(=O)Nc2ccc(C(C)(C)C)cc2)cc1 [Compound 418, N-(4-tert-Butyl-phenyl)-4-(3-propoxy-pyridin-2-yl)-benzamide] | – | < 1
4 | O=C(Nc1ccc2c(c1)OCCCO2)c1ccc(-c2cccc(OC(F)(F)F)c2)nc1 [Compound 223, N-(3,4-Dihydro-2H-benzo[b][1,4]dioxepin-7-yl)-6-(3-trifluoromethoxy-phenyl)-nicotinamide] | – | < 1
5 | CC(C)(C)c1ccc(NC(=O)c2ccc(-c3ncccc3[N+](=O)[O-])cc2)cc1 [Compound 415, N-(4-tert-Butyl-phenyl)-4-(3-nitro-pyridin-2-yl)-benzamide] | – | < 1
6 | CCCCc1ccc(NC(=O)c2ccc(-c3ncccc3Cl)cc2)cc1 [Compound 332, N-(4-Butyl-phenyl)-4-(3-chloro-pyridin-2-yl)-benzamide] | – | < 1
7 | Cc1ccccc1-c1ccc(C(=O)Nc2ccc(Oc3ccc(Cl)cc3)cc2)cn1 [Compound 459, N-[4-(4-Chloro-phenoxy)-phenyl]-6-o-tolyl-nicotinamide] | – | < 1
8 | CC(C)(C)c1ccc(NC(=O)c2ccc(C3CCCCN3S(C)(=O)=O)cc2)cc1 (stereo not shown) [Compound 397, N-(4-tert-Butyl-phenyl)-4-(1-methanesulfonyl-piperidin-2-yl)-benzamide] | – | < 1
9 | CC(C)(C)c1ccc(NC(=O)c2ccc(-c3cc(C(F)(F)F)ccn3)cc2)cc1 [Compound 422, N-(4-tert-Butyl-phenyl)-4-(4-trifluoromethyl-pyridin-2-yl)-benzamide] | – | < 1
10 | CCC(C)c1ccc(NC(=O)c2cnc(-c3ccccc3Cl)cn2)cc1 (stereo not shown) [Compound 38, 5-(2-Chloro-phenyl)-pyrazine-2-carboxylic acid (4-sec-butyl-phenyl)-amide] | – | < 1
